Source: the NIST ThermoML archive (doi:10.1021/je301029j)
Numbers after ± are expanded uncertainties.

Experiments:
[1] = Molar enthalpy of transition or fusion; details: Crystal; DSC
[2] = Crystal; DTA

Molar enthalpy of transition or fusion [1]: 8.18 ± 0.177 kcal/mol | Normal melting temperature [2]: 114.61 ± 0.63 °C
Structure (SMILES): O=P(CCCO)(CCCO)CCCO [tris(3-hydroxypropyl)phosphine oxide]
